Patent US5756120A, “Antibiotic formulation and use for drug resistant infections” (NeXstar Pharmaceuticals, Inc., priority 1995, dated 1998)
Where “and” joins values, the source holds several entries; their conditions need not be identical. Identical values can stand only once. Entries after “also recorded” stand apart in the source; their conditions may differ. Like-named read-outs stand apart in the source and are kept apart here.

Test system: M. tuberculosis drug resistant strain Vertulla
Format: cell-based
Conditions: for CFU (1 × 10^3): duplicate values; for inhibition or killing of drug resistant M. tuberculosis: concentrations tested (4, 8 and 16 μg/ml)

NCC[C@H](O)C(=O)N[C@@H]1C[C@H](N)[C@@H](O[C@H]2O[C@H](CN)[C@@H](O)[C@H](O)[C@H]2O)[C@H](O)[C@H]1O[C@H]1O[C@H](CO)[C@@H](O)[C@H](N)[C@H]1O [amikacin]
Avg. log CFU (4 μg/ml, day 4): 3.9 log CFU | CFU (1 × 10^3) (4 μg/ml, day 4): 9.3 1 × 10^3 CFU and 8.0 1 × 10^3 CFU | Avg. log CFU (4 μg/ml, day 7): 5.2 log CFU | Avg. log CFU (8 μg/ml, day 4): 3.7 log CFU | CFU (1 × 10^3) (8 μg/ml, day 4): 5 1 × 10^3 CFU and 4 1 × 10^3 CFU | Avg. log CFU (8 μg/ml, day 7): 3.7 log CFU | CFU (1 × 10^3) (8 μg/ml, day 7): 4.5 1 × 10^3 CFU and 6.2 1 × 10^3 CFU | Avg. log CFU (16 μg/ml, day 4): 3.7 log CFU | CFU (1 × 10^3) (16 μg/ml, day 4): 5 1 × 10^3 CFU and 5.4 1 × 10^3 CFU | Avg. log CFU (16 μg/ml, day 7): 3.6 log CFU | CFU (1 × 10^3) (16 μg/ml, day 7): 3.7 1 × 10^3 CFU and 4.1 1 × 10^3 CFU | inhibition or killing of drug resistant M. tuberculosis (listed as free amikacin): at the most, inhibition; also recorded: only inhibit the growth of the infection without killing at the concentrations tested | inhibition or killing of drug resistant M. tuberculosis (listed as free drug): only inhibits the growth of the bacteria
